The subject of experiment [1] is Plasmodium yoelii. As to the kind of experiment: Antimalarial activity against Plasmodium yoelii BY265RFP infected in Kunming mouse assessed as inhibition of parasitemia at 30 mg/kg/day, ig administered for 4 days starting from 3 hrs post infection and measured at 4 days post infection by Wright-Giemsa staining based microscopic assay relative to control. To be noted: po. It counts as functional.

Experiment [2] concerns Plasmodium yoelii. As to the kind of experiment: Antimalarial activity against Plasmodium yoelii BY265RFP infected in Kunming mouse assessed as inhibition of parasitemia at 50 mg/kg/day, ig administered for 4 days starting from 3 hrs post infection and measured at 4 days post infection by Wright-Giemsa staining based microscopic assay relative to control. To be noted: po. It counts as functional.

Experiment [3] concerns Plasmodium yoelii. As to the kind of experiment: Disruption of mitochondrial membrane potential in Plasmodium yoelii BY265RFP infected in mouse erythrocytes assessed as red/green fluorescence ratio at 0.03 uM incubated for 12 hrs by JC1 staining based laser-scanning confocal microscopic analysis (reference value: 1.55 +/- 0.08). The format is functional.
For experiment [4], the system named is Plasmodium yoelii. The experiment can be described thus: Disruption of mitochondrial membrane potential in Plasmodium yoelii BY265RFP infected in mouse erythrocytes assessed as red/green fluorescence ratio at 0.3 uM incubated for 12 hrs by JC1 staining based laser-scanning confocal microscopic analysis (reference value: 1.55 +/- 0.08). The format is functional.

In experiment [5] the test system is Plasmodium yoelii. The experiment can be described thus: Disruption of mitochondrial membrane potential in Plasmodium yoelii BY265RFP infected in mouse erythrocytes assessed as red/green fluorescence ratio at 3 uM incubated for 12 hrs by JC1 staining based laser-scanning confocal microscopic analysis (reference value: 1.55 +/- 0.08). It counts as functional.
The subject of experiment [6] is Plasmodium yoelii. The experiment can be described thus: Antimalarial activity against Plasmodium yoelii BY265RFP infected in Kunming mouse assessed as inhibition of parasitemia at 10 mg/kg/day, ig administered for 4 days starting from 3 hrs post infection and measured at 4 days post infection by Wright-Giemsa staining based microscopic assay relative to control. The format is functional. To be noted: po.

Experiment [7] deals with Plasmodium yoelii. The experiment can be described thus: Antimalarial activity against Plasmodium yoelii BY265RFP infected in Kunming mouse assessed as inhibition of parasitemia at 15 mg/kg/day, ig administered for 4 days starting from 3 hrs post infection and measured at 4 days post infection by Wright-Giemsa staining based microscopic assay relative to control. The note with it: po. The format is functional.

Experiment [8] deals with Plasmodium yoelii. The experiment can be described thus: Antimicrobial activity against Plasmodium yoelii BY265RFP infected in Kunming mouse assessed as relief from hepatomegaly at 15 to 30 mg/kg/day, ig administered for 4 days starting from 3 hrs post infection and measured at 4 days post infection. It counts as functional, organism-based.
For experiment [9], the system named is Plasmodium yoelii. The experiment can be described thus: Antimicrobial activity against Plasmodium yoelii BY265RFP infected in Kunming mouse assessed as recovery of erythrocyte at 15 to 30 mg/kg/day, ig administered for 4 days starting from 3 hrs post infection and measured at 4 days post infection. It counts as functional, organism-based.
Experiment [10] relates to Plasmodium yoelii. As to the kind of experiment: Antimicrobial activity against Plasmodium yoelii BY265RFP infected in Kunming mouse assessed as recovery of abdominal temperature at 15 to 30 mg/kg/day, ig administered for 4 days starting from 3 hrs post infection and measured at 5 days post infection. It counts as functional, organism-based.
In experiment [11] the test system is Plasmodium yoelii. As to the kind of experiment: Antimicrobial activity against Plasmodium yoelii BY265RFP infected in Kunming mouse assessed as increase in hemoglobin level at 15 to 30 mg/kg/day, ig administered for 4 days starting from 3 hrs post infection and measured at 5 days post infection. It counts as functional, organism-based.
Experiment [12] deals with Plasmodium yoelii. As to the kind of experiment: Induction of intracellular ROS production in Plasmodium yoelii BY265RFP infected in mouse erythrocytes at 0.03 to 3 uM after 12 hrs by DCFH-DA staining based laser-scanning confocal microscopic analysis. The format is functional, organism-based.
Another experiment concerns Hemozoin. The experiment can be described thus: Inhibition of beta-hematin formation incubated for 5 hrs.
In experiment [13] the test system is Mus musculus. The experiment can be described thus: Immunomodulatory activity in Kunming mouse infected with Plasmodium yoelii BY265RFP assessed as proportion of splenic CD4+CD25+ Tregs within CD4+ cells at 10 mg/kg/day, ig administered for 4 days starting from 3 hrs post infection and measured at 4 days post infection by FACSCalibur flow cytometry (reference value: 11.2 +/- 0.5%). The format is functional.

In experiment [14] the test system is Mus musculus. The experiment can be described thus: Immunomodulatory activity in Kunming mouse infected with Plasmodium yoelii BY265RFP assessed as proportion of splenic CD4+CD25+ Tregs within CD4+ cells at 30 mg/kg/day, ig administered for 4 days starting from 3 hrs post infection and measured at 4 days post infection by FACSCalibur flow cytometry (reference value: 11.2 +/- 0.5%). The format is functional. On the technique in general: In flow cytometry, cells or beads pass a laser one at a time.

In experiment [15] the test system is Mus musculus. As to the kind of experiment: Immunomodulatory activity in Kunming mouse infected with Plasmodium yoelii BY265RFP assessed as proportion of splenic CD4+CD25+ Tregs within CD4+ cells at 15 mg/kg/day, ig administered for 4 days starting from 3 hrs post infection and measured at 4 days post infection by FACSCalibur flow cytometry (reference value: 11.2 +/- 0.5%). It counts as functional.

The test system of experiment [16] is Mus musculus. The experiment can be described thus: Immunomodulatory activity in Kunming mouse infected with Plasmodium yoelii BY265RFP assessed as decrease in IL-10 at 30 mg/kg/day, ig administered for 4 days starting from 3 hrs post infection and measured at 4 days post infection by FACSCalibur flow cytometry. It counts as functional, organism-based.
Experiment [17] concerns Mus musculus. The experiment can be described thus: Immunomodulatory activity in Kunming mouse infected with Plasmodium yoelii BY265RFP assessed as increase in IL-12 at 30 mg/kg/day, ig administered for 4 days starting from 3 hrs post infection and measured at 4 days post infection by FACSCalibur flow cytometry. The format is functional, organism-based.
Experiment [18] deals with Mus musculus. As to the kind of experiment: Immunomodulatory activity in Kunming mouse infected with Plasmodium yoelii BY265RFP assessed as increase in IFN-gamma at 30 mg/kg/day, ig administered for 4 days starting from 3 hrs post infection and measured at 4 days post infection by FACSCalibur flow cytometry. The format is functional, organism-based.
In experiment [19] the test system is Mus musculus. The experiment can be described thus: Immunomodulatory activity in Kunming mouse infected with Plasmodium yoelii BY265RFP assessed as decrease in IgG at 30 mg/kg/day, ig administered for 4 days starting from 3 hrs post infection and measured at 4 days post infection by FACSCalibur flow cytometry. It counts as functional, organism-based.

As usually defined, the inhibition in vivo is the change of the read-out against control, counted positive when it falls.

Calls of active or inactive are those of the source. The rule behind the calls is not given here.

Take `C/C=C(/C)C(=O)O[C@H]1CC[C@]2(C)CC(=O)C[C@H]2[C@]1(C)OC(C)=O`: the inhibition in vivo at 30 mg/kg/day with Plasmodium yoelii [1] stood at 18.5%.
Same read-out and setting: the value for `C/C=C(/C)C(=O)O[C@H]1CC[C@]2(C)C[C@@H]3OC(=O)C(C)=C3C[C@H]2[C@]1(C)OC(C)=O` was 15%.
As for `C[C@@H]1CC[C@H]2[C@@H](C)C(=O)O[C@@H]3O[C@@]4(C)CC[C@@H]1[C@]32OO4` [ARTEMISININ], the inhibition in vivo at 50 mg/kg/day with Plasmodium yoelii [2] was 54.4%. Besides, the Ratio in the experiment with Plasmodium yoelii [3] worked out at 1.43; with Plasmodium yoelii [4], 1.33; with Plasmodium yoelii [5], 1.18.
Take `CCN(CC)CCCC(C)Nc1ccnc2cc(Cl)ccc12` (stereo not drawn) [CHLOROQUINE PHOSPHATE]: in the experiment on Plasmodium yoelii [6], the inhibition in vivo at 10 mg/kg/day was 97.9%.
Consider `C/C=C(/C)C(=O)O[C@H]1CC[C@]2(C)CC(=O)[C@@H](C(C)C(=O)O)C[C@H]2[C@]1(C)O` (stereo partly drawn), for which the inhibition in vivo at 30 mg/kg/day with Plasmodium yoelii [1] is 3.9%.
Turning to `C/C=C(/C)C(=O)O[C@H]1CC[C@]2(C)C[C@]3(O)OC(=O)C(C)=C3C[C@H]2[C@]1(C)O`, in the experiment on Plasmodium yoelii [1], the inhibition in vivo at 30 mg/kg/day is -1.9%.
Regarding `C/C=C(/C)C(=O)O[C@H]1CC[C@]2(C)C[C@]3(O)OC(=O)C(C)=C3C[C@H]2[C@]1(C)OC(C)=O`, in the experiment with Plasmodium yoelii [1], the inhibition in vivo at 30 mg/kg/day was found to be 14.5%.
As for `C/C=C(/C)C(=O)O[C@H]1CC[C@]2(C)C[C@@H](C(C)=O)C[C@H]2[C@]1(C)OC(C)=O`, in the experiment with Plasmodium yoelii [1], the inhibition in vivo at 30 mg/kg/day is 59.1%. Besides, the inhibition in vivo at 15 mg/kg/day with Plasmodium yoelii [7] came out at 33.8%. Besides, the result with Plasmodium yoelii [8], in the experiment on Plasmodium yoelii [9], in the experiment with Plasmodium yoelii [10], with Plasmodium yoelii [11], in the experiment with Plasmodium yoelii [12] and in the experiment on Mus musculus [16] was Active. The outcome in the experiment on Mus musculus [17], with Mus musculus [18] and with Mus musculus [19] was Active. The Ratio in the experiment on Plasmodium yoelii [3] was 1.51; in the experiment on Plasmodium yoelii [4], 1.35; with Plasmodium yoelii [5], 1.22. In addition, in the experiment with Hemozoin, the inhibition entry was “inactive”. Further, the results for the Activity in the experiment on Mus musculus [13], in the experiment with Mus musculus [14] and in the experiment with Mus musculus [15] were 6.7%, 7.6% and 8.6%, respectively.
